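Results reflect a 48-hour exposure of cells in 96-well plates to compound at five concentrations. At the GI50, growth is halved. TGI marks complete inhibition of growth.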
Legend:
Assay in all cases: inhibition of tumour cell growth, NCI panel, 48 h
786-0 renal = system: 786-0 renal
A498 renal = system: A498 renal
A549 NSCLC = system: A549 NSCLC
ACHN renal = system: ACHN renal
BT-549 breast = system: BT-549 breast
CAKI-1 renal = system: CAKI-1 renal
CCRF-CEM leukemia = system: CCRF-CEM leukemia
COLO 205 colon = system: COLO 205 colon
DU-145 prostate = system: DU-145 prostate
EKVX NSCLC = system: EKVX NSCLC
HCC-2998 colon = system: HCC-2998 colon
HCT-116 colon = system: HCT-116 colon
HCT-15 colon = system: HCT-15 colon
HL-60(TB) leukemia = system: HL-60(TB) leukemia
HOP-62 NSCLC = system: HOP-62 NSCLC
HOP-92 NSCLC = system: HOP-92 NSCLC
HS 578T breast = system: HS 578T breast
HT29 colon = system: HT29 colon
IGROV1 ovarian = system: IGROV1 ovarian
K-562 leukemia = system: K-562 leukemia
KM12 colon = system: KM12 colon
LOX IMVI melanoma = system: LOX IMVI melanoma
M14 melanoma = system: M14 melanoma
MALME-3M melanoma = system: MALME-3M melanoma
MCF7 breast = system: MCF7 breast
MDA-MB-231 breast = system: MDA-MB-231 breast
MDA-MB-435 = system: MDA-MB-435
MDA-MB-468 breast = system: MDA-MB-468 breast
MOLT-4 leukemia = system: MOLT-4 leukemia
NCI-H226 lung = system: NCI-H226 lung
NCI-H23 lung = system: NCI-H23 lung
NCI-H460 lung = system: NCI-H460 lung
NCI-H522 lung = system: NCI-H522 lung
NCI/ADR-RES ovarian = system: NCI/ADR-RES ovarian
OVCAR-3 ovarian = system: OVCAR-3 ovarian
OVCAR-4 ovarian = system: OVCAR-4 ovarian
OVCAR-5 ovarian = system: OVCAR-5 ovarian
OVCAR-8 ovarian = system: OVCAR-8 ovarian
PC-3 prostate = system: PC-3 prostate
RPMI-8226 leukemia = system: RPMI-8226 leukemia
RXF 393 renal = system: RXF 393 renal
SF-268 CNS = system: SF-268 CNS
SF-295 CNS = system: SF-295 CNS
SF-539 CNS = system: SF-539 CNS
SK-MEL-2 melanoma = system: SK-MEL-2 melanoma
SK-MEL-28 melanoma = system: SK-MEL-28 melanoma
SK-MEL-5 melanoma = system: SK-MEL-5 melanoma
SK-OV-3 ovarian = system: SK-OV-3 ovarian
SN12C renal = system: SN12C renal
SNB-19 CNS = system: SNB-19 CNS
SNB-75 CNS = system: SNB-75 CNS
SR leukemia = system: SR leukemia
SW-620 colon = system: SW-620 colon
T-47D breast = system: T-47D breast
TK-10 renal = system: TK-10 renal
U251 CNS = system: U251 CNS
UACC-257 melanoma = system: UACC-257 melanoma
UACC-62 melanoma = system: UACC-62 melanoma
UO-31 renal = system: UO-31 renal

`S=C(NCCc1ccccc1)Nc1ccc(OCc2nc3ccc(Cl)cc3[nH]2)cc1` was tested, and the GI50 (786-0 renal) was 7.67 µM, the TGI (786-0 renal) was 21.4 µM and the GI50 (A498 renal) was 10.4 µM. The TGI (A498 renal) was 22.7 µM, the GI50 (A549 NSCLC) was 12.6 µM and the TGI (A549 NSCLC) was 31.5 µM. The GI50 (ACHN renal) was 7.74 µM, the TGI (ACHN renal) was 20.4 µM and the GI50 (BT-549 breast) was 10.4 µM. The TGI (BT-549 breast) was 22.5 µM, the GI50 (CAKI-1 renal) was 4.32 µM and the TGI (CAKI-1 renal) was 17.7 µM. It also gave a GI50 (CCRF-CEM leukemia) of 3.06 µM, a TGI (CCRF-CEM leukemia) of 14.8 µM and a GI50 (COLO 205 colon) of 12.4 µM. The TGI (COLO 205 colon) was 28 µM, the GI50 (DU-145 prostate) was 12 µM and the TGI (DU-145 prostate) was 25 µM. It also gave a GI50 (EKVX NSCLC) of 7.97 µM, a TGI (EKVX NSCLC) of 21.2 µM and a GI50 (HCC-2998 colon) of 6.1 µM. It also gave a TGI (HCC-2998 colon) of 20.4 µM, a GI50 (HCT-116 colon) of 4.65 µM and a TGI (HCT-116 colon) of 17.6 µM. For the same compound, the GI50 (HCT-15 colon) was 4.9 µM, the TGI (HCT-15 colon) was 18 µM and the GI50 (HL-60(TB) leukemia) was 1.26 µM. It also gave a TGI (HL-60(TB) leukemia) of 4.35 µM, a GI50 (HOP-62 NSCLC) of 14 µM and a TGI (HOP-62 NSCLC) of 28.7 µM. For the same compound, the GI50 (HOP-92 NSCLC) was 3.52 µM, the TGI (HOP-92 NSCLC) was 17 µM and the GI50 (HS 578T breast) was 8.41 µM. For the same compound, the TGI (HS 578T breast) was 31.9 µM, the GI50 (HT29 colon) was 9.67 µM and the TGI (HT29 colon) was 24.4 µM. For the same compound, the GI50 (IGROV1 ovarian) was 6.26 µM, the TGI (IGROV1 ovarian) was 19.9 µM and the GI50 (K-562 leukemia) was 3.04 µM. For the same compound, the TGI (K-562 leukemia) was 20 µM, the GI50 (KM12 colon) was 10.5 µM and the TGI (KM12 colon) was 23.6 µM. The GI50 (LOX IMVI melanoma) was 4.02 µM, the TGI (LOX IMVI melanoma) was 16.1 µM and the GI50 (M14 melanoma) was 9.53 µM. The TGI (M14 melanoma) was 22 µM, the GI50 (MALME-3M melanoma) was 12.5 µM and the TGI (MALME-3M melanoma) was 25.2 µM. For the same compound, the GI50 (MCF7 breast) was 3.14 µM, the TGI (MCF7 breast) was 15.5 µM and the GI50 (MDA-MB-231 breast) was 5.75 µM. It also gave a TGI (MDA-MB-231 breast) of 19.4 µM, a GI50 (MDA-MB-435) of 4.36 µM and a TGI (MDA-MB-435) of 17.6 µM. For the same compound, the GI50 (MDA-MB-468 breast) was 3.78 µM, the TGI (MDA-MB-468 breast) was 17.4 µM and the GI50 (MOLT-4 leukemia) was 2.46 µM. The TGI (MOLT-4 leukemia) was 7.51 µM, the GI50 (NCI-H226 lung) was 12.9 µM and the TGI (NCI-H226 lung) was 35.5 µM. The GI50 (NCI-H23 lung) was 10.9 µM, the TGI (NCI-H23 lung) was 23.7 µM and the GI50 (NCI-H460 lung) was 4.31 µM. For the same compound, the TGI (NCI-H460 lung) was 17.3 µM, the GI50 (NCI-H522 lung) was 2.22 µM and the TGI (NCI-H522 lung) was 7.02 µM. The GI50 (NCI/ADR-RES ovarian) was 7.15 µM, the TGI (NCI/ADR-RES ovarian) was 25.5 µM and the GI50 (OVCAR-3 ovarian) was 3.51 µM. It also gave a TGI (OVCAR-3 ovarian) of 17.1 µM, a GI50 (OVCAR-4 ovarian) of 7 µM and a TGI (OVCAR-4 ovarian) of 23.9 µM. It also gave a GI50 (OVCAR-5 ovarian) of 11.5 µM, a TGI (OVCAR-5 ovarian) of 23.6 µM and a GI50 (OVCAR-8 ovarian) of 11.9 µM. The TGI (OVCAR-8 ovarian) was 30.4 µM, the GI50 (PC-3 prostate) was 6.8 µM and the TGI (PC-3 prostate) was 22.9 µM. The GI50 (RPMI-8226 leukemia) was 4.54 µM, the TGI (RPMI-8226 leukemia) was 45.5 µM and the GI50 (RXF 393 renal) was 4.07 µM. The TGI (RXF 393 renal) was 17.1 µM, the GI50 (SF-268 CNS) was 11.1 µM and the TGI (SF-268 CNS) was 27.1 µM. For the same compound, the GI50 (SF-295 CNS) was 7.08 µM, the TGI (SF-295 CNS) was 21.7 µM and the GI50 (SF-539 CNS) was 8.77 µM. The TGI (SF-539 CNS) was 20.9 µM, the GI50 (SK-MEL-2 melanoma) was 13.1 µM and the TGI (SK-MEL-2 melanoma) was 26.2 µM. For the same compound, the GI50 (SK-MEL-28 melanoma) was 12.6 µM, the TGI (SK-MEL-28 melanoma) was 25.3 µM and the GI50 (SK-MEL-5 melanoma) was 12.7 µM. The TGI (SK-MEL-5 melanoma) was 25.7 µM, the GI50 (SK-OV-3 ovarian) was 14.2 µM and the TGI (SK-OV-3 ovarian) was 27.9 µM. The GI50 (SN12C renal) was 6.28 µM, the TGI (SN12C renal) was 20.1 µM and the GI50 (SNB-19 CNS) was 11.6 µM. It also gave a TGI (SNB-19 CNS) of 23.8 µM, a GI50 (SNB-75 CNS) of 1.63 µM and a TGI (SNB-75 CNS) of 14.9 µM. For the same compound, the GI50 (SR leukemia) was 2.2 µM, the TGI (SR leukemia) was 6.99 µM and the GI50 (SW-620 colon) was 9.72 µM. It also gave a TGI (SW-620 colon) of 22.7 µM, a GI50 (T-47D breast) of 5.61 µM and a TGI (T-47D breast) of 25.3 µM. The GI50 (TK-10 renal) was 13.8 µM, the TGI (TK-10 renal) was 27.3 µM and the GI50 (U251 CNS) was 13.1 µM. The TGI (U251 CNS) was 27.1 µM, the GI50 (UACC-257 melanoma) was 13.7 µM and the TGI (UACC-257 melanoma) was 27.4 µM. The GI50 (UACC-62 melanoma) was 7.94 µM, the TGI (UACC-62 melanoma) was 20.8 µM and the GI50 (UO-31 renal) was 3.37 µM. For the same compound, the TGI (UO-31 renal) was 16 µM.

Reference: PubChem BioAssay (NCI)
